Results published in patent US4507320A.
Where two headings read alike, the source gives them in different places.

What was measured:
[1] = test system: adenylate cyclase in the caudate nucleus; settings: compared with dopamine; cited from earlier work
alpha1 = assay: alpha1-agonist activity in superfused rabbit ear artery segment; settings: read-out: EC50-α1, acid addition salt form
Experimental: (§1) The procedure measures the ability of the test compound to inhibit the constrictor response of isolated perfused rabbit ear artery caused by field stimulation of its adrenergic nerve terminals. Activity in this test is, then, compared with undesired alpha1 -agonist activity which is determined in the superfused rabbit ear artery segment.

alpha2 = assay: alpha2-agonist activity in isolated guinea pig atrial tissue
[2] = test system: presynaptic dopaminergic (DA2) receptor; settings: for vasoconstriction observed during the tests (alpha1-mediated): rabbit ear artery, Compound B at 300 nM in the effector response test
Experimental: as §1

[3] = target: T1, presynaptic dopaminergic (DA2) receptor (Oryctolagus cuniculus, UniProt G1T1Q0)
T1 sequence (G1T1Q0 1-443): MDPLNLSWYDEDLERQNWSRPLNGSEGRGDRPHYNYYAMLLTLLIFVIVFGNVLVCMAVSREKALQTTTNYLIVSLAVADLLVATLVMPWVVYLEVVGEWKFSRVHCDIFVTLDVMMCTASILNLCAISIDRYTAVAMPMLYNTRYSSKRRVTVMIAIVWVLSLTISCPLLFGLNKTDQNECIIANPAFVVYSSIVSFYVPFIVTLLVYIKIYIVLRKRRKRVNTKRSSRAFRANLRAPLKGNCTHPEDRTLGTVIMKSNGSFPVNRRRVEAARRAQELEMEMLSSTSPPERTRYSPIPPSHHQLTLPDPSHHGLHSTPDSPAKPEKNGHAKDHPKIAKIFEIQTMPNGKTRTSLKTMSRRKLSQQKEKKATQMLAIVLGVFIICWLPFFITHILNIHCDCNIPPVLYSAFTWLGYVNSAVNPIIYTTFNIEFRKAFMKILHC
Experimental: as §1

[4] = target: T1, presynaptic dopaminergic (DA2) receptor; assay: stimulation-evoked 3H-norepinephrine release from prelabelled rabbit ear artery (DA2)

Row | SMILES | agonist activity for adenylate cyclase [1] | EC50 (alpha1) | alpha2-agonist activity (alpha2) | selectivity for peripheral DA2 receptor sites over alpha1 ([2]; from DA2 EC50 vs alpha1 EC50) | vasoconstriction observed during the tests (alpha1-mediated) [2] | EC50 [3] | EC50 [4]
1 | CS(=O)(=O)Nc1cc(CCN)ccc1O [3-methylsulfonamido analogue of dopamine] | weaker than was dopamine itself | – | – | – | – | – | –
2 | CCCN(CCC)CCc1ccc(O)c(NS(C)(=O)=O)c1 [Compound A] | – | 760 nM | no alpha2 -agonist activity | high selectivity for the desired peripheral DA2 receptor sites | No alpha1 -mediated vasoconstriction was observed | 2 nM | 10 nM
3 | CS(=O)(=O)Nc1cc(CCN)ccc1O [Compound B] | – | 355 nM | significant α2 -activity | – | vasoconstriction was observed | > 300 nM | 3000 nM
4 | CNCCc1ccc(O)c(NS(C)(=O)=O)c1 [Compound C] | – | 25 nM | significant α2 -activity | – | demonstrates vasoconstriction as a result of alpha1 -agonist activity | > 30 nM | 300 nM
5 | CC(C)NCCc1ccc(O)c(NS(C)(=O)=O)c1 [D] | – | 2000 nM | – | – | – | > 1000 nM | –
6 | CCCN(CCC)CCc1ccc(O)c(NS(=O)(=O)C(F)(F)F)c1 [E] | – | – | – | – | – | > 1000 nM | –
7 | CCCN(CCC)CCc1cccc(NS(C)(=O)=O)c1 [F] | – | – | – | – | – | 400 nM | –
8 | CS(=O)(=O)Nc1cccc(CCN)c1 [G] | – | – | – | – | – | > 1000 nM | –
